From patent US20110136151A1, “ASSAYS FOR DIAGNOSING AND EVALUATING TREATMENT OPTIONS FOR POMPE DISEASE” (AMICUS THERAPEUTICS, INC., priority 2008, published 2011)

Columns and labels:
acid α-glucosidase (GAA) = experiment: Ex vivo GAA enhancement assay in Pompe patient-derived lymphoblast cell lines treated with DNJ (4-MU-alpha-Glc lysate activity); type: cell-based, human; settings: five days
Procedure: Lymphoblast cell lines were derived from 26 patients and treated with DNJ (0, 30, 100 and 300 μM) for five days. Lymphoblastoid cell lines (LCLs) are leukocyte cultures (primarily B cells) that have been transformed with the Epstein-Barr Virus (EBV) to produce proliferative suspension cultures. Leukocyte cultures were prepared as described in Example 2, and transformed with the EBV to establish the lymphoblast cells. Because well established LCLs can be very fast-growing (even those with genetic and metabolic disorders), their density must be carefully controlled to prevent overcrowding over an extended period. The following protocol details cell seeding density, treatment with a test compound (i.e. DNJ) treatment compound washout, lysing, and assaying of LCLs for the measurement of acid α-glucoside (GAA) with the test compound.
• 1. All cell culture work was performed in a BLII Bio-safety cabinet using sterile techniques. LCL culture was expanded to a T75 by transferring 7e^6-1e^7 cells total to a T75 and add 40 ml 37° C. complete growth media. • 2. Optimal LCL cultures were selected in T75 flasks based on cell density and viability. A cell count was performed on these cultures. Usually a cell density of 1e^6 cells/ml maintains LCLs at the highest viability (90-98% viable). Cells densities higher than 1e^6 cells/ml drastically reduce the overall viability in the culture. • 3. A sterile 50 ml conical centrifuge tube was used to prepare a cell suspension in the appropriate amount of complete growth media to obtain a final cell density of approximately 2.0×10^5 cells/ml at a volume of at least 20 ml. (For example, if the original culture contains 1e^6 cells/ml, 16 ml media should be added to 4 ml of the cell suspension in the staging tube to create a density of 2e^5 cells/ml in a volume of 20 ml.). Cell suspensions were dispensed into four labeled T25 flasks at 5 ml each total volume. This process is repeated for each LCL to be processed. All flasks were placed in a humidified 5% CO2 37° C. incubator overnight. The original T75 cultures can be expanded and returned to the same incubator, if necessary. 5. Treatment with Test Compound • 1. Treatment of the cells with the DNJ test compound was performed 24 hours after the cells were seeded into T25 flasks. • 2. 5 ml of each treatment concentration is required for each cell line. Cell lines were treated with test compound over a concentration range of 0, x, 3x, and 10x test compound. • 3. A 2x stock of test compound solution was prepared in sterile 15 ml or 50 ml centrifuge tubes for each condition and 5 ml solution was added to 5 ml pre-incubated culture. Stock concentrations of 0, 60, 200, and 600 μM DNJ were made; when added to the flasks, the final concentrations were 0, 30, 100, and 300 μM DNJ. • 4. Each set of flasks were marked with the appropriate treatment concentrations, and 5 ml from the corresponding stock suspension were added to each flask. All flasks were returned to the incubator for 5 days.
• 1. After five days (120 hours) of treatment, 100% of the media was exchanged in the cell suspension with compound-free complete media in the following manner; • 2. The contents of each T25 was transferred to a sterile 15 ml conical centrifuge tube that had been pre-numbered to maintain order of concentration range. • 3. After each set was transferred, each T25 was washed with 5 ml blank RPMI 1640 (no phenol red). • 4. The tubes were centrifuged at 21° C. for 10 min at 600 g. During the spin, the blank RPMI was removed from the flasks by aspiration, maintaining sterility. • 5. Following the centrifugation, the supernatant was removed from the tubes by aspiration and the pellets were resuspended in 10 ml complete media. The cell suspensions were transferred back to their respective flasksAll flasks were returned to the 5% CO2 37° C. incubator overnight.

GAA [1] = molecular target: T1, GAA (Mus musculus, UniProt P70699); experiment: GAA levels after longer treatment of wild type mice; type: in vivo; settings: treatment 4-13 weeks
T1 construct: treatment of wild type mice and cynomolgus monkeys for longer periods of time; from tissue; host or cells: wild type mice
T1 sequence (P70699 70-953): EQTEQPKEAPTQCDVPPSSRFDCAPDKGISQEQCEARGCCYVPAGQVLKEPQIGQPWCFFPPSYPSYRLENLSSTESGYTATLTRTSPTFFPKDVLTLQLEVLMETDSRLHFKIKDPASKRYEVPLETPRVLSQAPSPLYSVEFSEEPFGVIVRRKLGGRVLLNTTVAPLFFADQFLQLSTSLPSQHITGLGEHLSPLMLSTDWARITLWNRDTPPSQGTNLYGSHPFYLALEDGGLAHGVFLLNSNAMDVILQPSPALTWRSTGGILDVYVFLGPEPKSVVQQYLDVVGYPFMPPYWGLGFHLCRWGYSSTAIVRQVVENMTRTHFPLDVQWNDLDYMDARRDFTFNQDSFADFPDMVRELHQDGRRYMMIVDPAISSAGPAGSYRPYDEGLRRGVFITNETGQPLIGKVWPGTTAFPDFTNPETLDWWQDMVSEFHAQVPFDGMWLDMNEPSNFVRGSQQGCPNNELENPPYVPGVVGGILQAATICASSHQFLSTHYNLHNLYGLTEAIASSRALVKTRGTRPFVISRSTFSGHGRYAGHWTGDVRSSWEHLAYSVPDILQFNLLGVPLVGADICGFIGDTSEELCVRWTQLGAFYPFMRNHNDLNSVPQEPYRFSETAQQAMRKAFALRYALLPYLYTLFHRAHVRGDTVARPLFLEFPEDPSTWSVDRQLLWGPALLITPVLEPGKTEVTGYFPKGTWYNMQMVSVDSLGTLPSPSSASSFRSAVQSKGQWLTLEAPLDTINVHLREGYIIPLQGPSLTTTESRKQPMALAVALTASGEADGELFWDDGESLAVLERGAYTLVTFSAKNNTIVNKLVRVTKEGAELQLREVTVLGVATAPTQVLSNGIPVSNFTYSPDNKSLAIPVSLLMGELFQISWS

GAA [2] = experiment: GAA levels after longer treatment of cynomolgus monkeys; type: in vivo; settings: treatment 4-13 weeks
[3] = 24/26 patient lymphoblast cell lines, DNJ 30-300 μM
[4] = patient cell lines with at least one missense mutation
[5] = patient cell lines with one copy of IVS1 13T>G and one copy of a non-missense null mutation

SMILES: OC[C@H]1NCC(O)[C@@H](O)C1O (stereo partly drawn) [DNJ, 1-deoxynojirimycin]
- increase in GAA levels, mean (acid α-glucosidase (GAA); [3]): 93%
- increase in GAA levels, range (acid α-glucosidase (GAA); [3]): 7-620%
- dose-dependent increase in GAA levels, mean (acid α-glucosidase (GAA); [4]): 219%
- dose-dependent increase in GAA levels, range (acid α-glucosidase (GAA); [4]): 7-620%
- increase in GAA levels, mean (acid α-glucosidase (GAA); [5]): 22%
- increase in GAA levels, range (acid α-glucosidase (GAA); [5]): 7-51%
- patient cell lines with dose-dependent increase in GAA levels (acid α-glucosidase (GAA); patient-derived lymphoblasts, DNJ 0, 30, 100 and 300 μM): 24/26
- increase in GAA levels (GAA [1]): ≥ 2 fold
- increase in GAA levels (GAA [2]): ≥ 2 fold
